Data set [1] has as its system HeLa. Kind of data set: MTT cytotoxicity assay, HeLa. In kind it is cell-based, human. The settings on record: 48 h, mean ± SD of three experiments. How it is done: (§1) Compounds 1–4 were evaluated against three tumor cell lines derived from different tissues, including the cervix (HeLa), lung (A549) and cisplatin-resistant lung (A549R) tissues. For comparison, the cytotoxicity of cisplatin was also evaluated. As a control, the toxicities of the complexes were also tested against the normal human cell line (LO2).
(§2) The human cervix carcinoma cell line (HeLa), the lung carcinoma cell lines (A549 and A549R), and the human hepatocyte cell line (LO2) were obtained from the Experimental Animal Center at Sun Yat-Sen University (Guangzhou, China). The cells were maintained in Dulbecco’s modified Eagle’s medium (DMEM, Gibco BRL) or Roswell Park Memorial Institute 1640 (RPMI 1640, Gibco BRL) medium supplemented with 10% fetal bovine serum (FBS, Gibco BRL), 100 μg/mL streptomycin, and 100 U/mL penicillin (Gibco BRL) in a humidified incubator under 5% CO2 and 20% O2 at 37 °C. To maintain the resistant phenotype, A549R cells were incubated with 5 μM cisplatin and cultured in drug-free medium for at least a week before use.
(§3) The cytotoxicity of the ruthenium complexes and cisplatin were determined by an MTT assay. Briefly, cells were seeded into 96-well microtiter plates at 1 × 10^4 cells per well and grown overnight at 37 °C in a 5% CO2 incubator; then, different concentrations of the complexes in cell culture medium were added to the cultures. The plates were then incubated in an incubator for 48 h under the same conditions. The stock MTT dye solution (15 μL, 5 mg/mL) was added to each well. After 4 h of incubation, the cultures were removed and 150 μL of DMSO was added to each well. The optical density of each well was measured on a microplate spectrophotometer at a wavelength of 595 nm.
(In general: Formazan colour is commonly taken as a measure of viable cells.)

The subject of data set [2] is A549. In words: MTT cytotoxicity assay, A549. In kind it is cell-based, human. Particulars: A549, 48 h, mean ± SD of three experiments. How it is done: as §1, §2, §3
The subject of data set [3] is A549R. Kind of data set: MTT cytotoxicity assay, cisplatin-resistant A549R. Particulars: 48 h, mean ± SD of three experiments. In kind it is cell-based, human. How it is done:
as §1, §2, §3

Data set [4] relates to LO2. In words: MTT cytotoxicity assay, normal LO2 cells. It is filed as cell-based. Particulars: LO2 normal human cell line, 48 h. As to the method:
as §1, §2, §3

In data set [5] the test system is A549R MCTSs. In words: Cytotoxicity test on 3D MCTSs (Cell TiterGlo ATP). In kind it is cell-based, human. Particulars: A549R MCTSs (~400 μm in diameter), 48 h. As to the method: MCTSs were cultured using the liquid overlay method. A549R cells in the exponential growth phase were dissociated by a trypsin/EDTA solution to gain single-cell suspensions. A number of 3000 diluted A549R cells were transferred to 1.5% agarose-coated transparent 96-well plates with 200 μL of DMEM containing 10% serum. The single cells formed MCTS aggregates approximately 400 μm in diameter after three days with 5% CO2 and 20% O2 at 37 °C. After formation of the MCTSs, each MCTS in a 96-well plate was imaged with a phase contrast microscope (Zeiss Axio Observer D1, Germany) using 10× objective to monitor their color, integrity, diameter, and volume.
A549R MCTSs (diameters ≈400 μm) were treated by carefully replacing 50% of the medium with drug-supplemented standard medium using an eight-channel pipet. In parallel, 50% of the medium containing solvent was replaced with solvent-free medium for the untreated MCTSs. Three A549R MCTSs were treated per condition and drug concentration; the DMSO volume was less than 1% (v/v). The MCTSs were then allowed to incubate for another 48 h. The cytotoxicities of the Ru(II) complexes toward the MCTSs were measured using ATP concentrations with a Cell TiterGlo kit (Promega). After 30 min of incubation, the MCTSs were carefully transferred into black-sided, flat-bottomed 96-well plates (Corning) and mixed with a pipet for luminescence measurements on an Infinite M200 PRO instrument (TECAN).

Data set [6] deals with cancer cell lines (HeLa, A549, A549R). In words: MTT cytotoxicity, all tested cancer cell lines taken together. It is filed as cell-based, human. The settings on record: 48 h, read-out: IC50 toward all the tested cancer cell lines. As to the method:
as §1, §3

Data set [7] in a line: Distribution coefficient (log Po/w), flask-shaking, n-octanol/phosphate buffer. It is filed as physicochemical. Particulars: n-octanol / phosphate buffer pH 7.4, 37 °C; in words only (Figure S8). As to the method:
Distribution coefficients (log Po/w) were determined by liquid-liquid extraction between n-octanol (oil) and phosphate buffers (0.2 M, pH 7.4) with the flask-shaking method. N-Octanol and the buffer were mutually saturated with each other for at least 24 h before use. An aliquot of a ruthenium complex stock solution was added to the phosphate buffer concentrations at <10 mg/mL, and the mixture was shaken at 100 rpm for 24 h at 37 °C to allow for adequate partitioning. After the sample was centrifuged at 3000 rpm for 20 min, the aqueous layer was used for ruthenium analysis, and the Ru content in the aqueous layer was measured by ICP-MS and used to calculate the log Po/w.

Data set [8] relates to A549R cells. In words: Cell uptake study by ICP-MS. It is filed as cell-based, human. Particulars: 2.0 μM, 12 h. How it is done: (§4) To understand the high sensitivity of cancer cells to Ru(II) complexes, the extent of cellular uptake was investigated with inductively coupled plasma mass spectrometry (ICP-MS) by treating the HeLa, A549, A549R and LO2 cell lines with 2.0 μM concentrations of the Ru(II) complexes and cisplatin for 12 h. […] In this study, the cellular uptake and lipophilicity were distinctly correlated and followed the order: 4 >3 >2 >1. Complex 4 had the best accumulation, but the amount of Ru in LO2 cells was far less than that in the three cancer lines, indicating selective accumulation and improved efficiency for treating cancer. Cisplatin was taken up more efficiently by the sensitive cell line (A549) than by the cisplatin-resistant cell line (A549R). […] However, less than 1.5% of the cellular platinum was accumulated in the mitochondrial fraction of the A549R cells. Therefore, complex 4 could function in a different manner than cisplatin in A549R cells, which would be an appropriate solution to combat cisplatin resistance in tumor cells.
The cells were plated at a density of 1 × 10^5 cells/mL in 10 mL of DMEM for 24 h at 37 °C under 5% CO2 and 20% O2, Ruthenium complexes (2.0 μM) and cisplatin were added to the culture medium and incubated for 12 h, and mixed with cold PBS and a trypsin-EDTA solution in a centrifuge tube for counting. Then, the nuclei and cytoplasm of the cells were extracted by using a Nuclear and Cytoplasmic Protein Extraction Kit (Life Technologies). The samples were digested in 20% HNO3 and 10% H2O2 at room temperature overnight. Each sample was then diluted with Milli-Q water to obtain 2% HNO3 sample solutions. Ruthenium contents were determined using inductively coupled plasma mass spectrometry (ICP-MS Thermo Elemental Co., Ltd.).

The subject of data set [9] is A549R cells. In words: Subcellular distribution study by ICP-MS. It is filed as cell-based, human. The settings on record: 2.0 μM, 12 h. As to the method: as §4
A549R cells were plated at a density of 1 × 10^5 cells/mL in 10 mL of DMEM for 24 h at 37 °C under 5% CO2 and 20% O2. […] The ruthenium or platinum contents were determined using inductively coupled plasma mass spectrometry (ICP-MS Thermo Elemental Co., Ltd.).

Data set [10] deals with A549R cells. Kind of data set: Real-time cell growth and proliferation assay (xCELLigence). It is filed as cell-based, human. The settings on record: 100 μM. As to the method: In addition, a real-time cell growth and proliferation assay using an xCELLigence System was utilized to confirm the high toxicity of complex 4 on A549R cells. […] In contrast, A549R cells were killed by treatment with complex 4 in a concentration-dependent manner.
This experiment was performed using an xCELLigence RTCA DP system real time cell analyzer (Roche Diagnostics GmbH, Germany). In brief, 80 μL of cell culture media was added to each well of a 16-well plate (E-plate 16, Roche Diagnostics GmbH, Germany). The 16-well plates were then connected to the system and checked for suitable electrical contacts in the real time cell analyzer, and the background impedance was measured for 24 s. Meanwhile, the A549R cells were suspended in cell culture medium and adjusted to 5 × 10^4 cells/mL, and 100 μL of each cell suspension was added to each well of […]. Approximately 24 h after seeding, the A549R cells were in the logarithmic phase of growth, and a wide range of concentrations of complex 4 and cisplatin (100 μM) were added. The cells were automatically monitored every 15 min over 48 h by the xCELLigence system. Data were analyzed using RTCA software (version 1.2) that was supplied with the instrument.

Data set [11] has as its system A549R MCTSs. In words: Growth inhibition of drug-treated MCTSs (size by imaging). It is filed as cell-based, human. Particulars: 100 μM. The source says:
Traditional research on the efficacy of cancer drugs is usually performed in two-dimensional (2-D) cell cultures, which may not be a true indicator of the in vivo effectiveness of cancer treatments. This is in part due to the absence of cell-cell or cell-extracellular matrix interactions in 2-D cell models. Therefore, the development of cell culture models that can close the gap between conventional 2-D cell experiments and animal studies is necessary to study the cytotoxicity and anti-proliferative activities of drugs. Multicellular tumor spheroids (MCTSs) are heterogeneous cellular aggregates that have properties of solid tumors, such as nutrient and oxygen gradients, hypoxic/necrotic regions, cell-cell matrix interactions, and gene expression.
MCTSs were cultured using the liquid overlay method. A549R cells in the exponential growth phase were dissociated by a trypsin/EDTA solution to gain single-cell suspensions. A number of 3000 diluted A549R cells were transferred to 1.5% agarose-coated transparent 96-well plates with 200 μL of DMEM containing 10% serum. The single cells formed MCTS aggregates approximately 400 μm in diameter after three days with 5% CO2 and 20% O2 at 37 °C. […]

We go through 4 molecules from PMC4725915, “Ruthenium(II) Complexes with 2-Phenylimidazo[4,5-f][1,10]phenanthroline Derivatives that Strongly Combat Cisplatin-Resistant Tumor Cells” (Scientific Reports, 2016).

Take `[Ru+2].c1ccc(-c2nc3c4cccnc4c4ncccc4c3[nH]2)cc1.c1cnc2c(c1)ccc1cccnc12.c1cnc2c(c1)ccc1cccnc12` [Complex 1, [Ru(phen)2(PIP)]^2+]: the IC50 in [1], in [2], in [3], in data set [4], in data set [5] and in [6] was over 100 µM each time. Besides, in data set [7], the “log Po/w” value is “negative”.
For the molecule `FC(F)(F)c1ccc(-c2nc3c4cccnc4c4ncccc4c3[nH]2)cc1.[Ru+2].c1cnc2c(c1)ccc1cccnc12.c1cnc2c(c1)ccc1cccnc12` [Complex 2], the IC50 (in general, the concentration at which inhibition is half-maximal) was 55.4 ± 3.1 µM in data set [1]; 43.4 ± 5.3 µM in [2]; 48.2 ± 2.7 µM in [3]; 75.8 ± 7.5 µM in [4]; 95.7 µM in [5]. In addition, in [7], the “log Po/w” value was “moderate”.
On to `N.N.[Cl][Pt][Cl]` [cisplatin], for which the IC50 was 15.1 ± 2.1 µM in [1]; 21.3 ± 3.3 µM in data set [2]; 142 ± 5.4 µM in data set [3]; 18.9 ± 2.6 µM in data set [4]; over 200 µM in [5]. The “share of the compound taken up by A549R cells” value in [8] (A549R) was “less than 1%”. Besides, in data set [8] (A549 vs A549R), the “platinum level in A549 cells relative to A549R cells” value is given as “ca. 4 fold”. Also, the “share of cellular metal accumulated in the mitochondrial fraction” value in data set [9] was “less than 1.5%”. The “effect on A549R cells compared to the control (xCELLigence)” value in [10] is given as “negative effect”. Moreover, the “change in size of A549R MCTSs” value in data set [11] is on record as “increased with time”.
As for Ru(phen)2(tbtfpip)(PF6)2 [Complex 3], the IC50 in data set [1] is 22.5 ± 3.3 µM; in data set [2], 28.6 ± 2.6 µM; in data set [3], 32.2 ± 1.5 µM; in [4] it was 45.6 ± 3.8 µM; in [5] it was 60.6 ± 5.5 µM. Further, in data set [7], the “log Po/w” value is on record as “moderate”.
